Reference: PubChem BioAssay (NCI)
Several values for one entry are separate records, joined by “and”; a condition that tells them apart may be missing. Equal values may be shown once.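 Step 1: Grow cells in 96-well plates. Step 2: Expose to compound for 48 hours at 5 concentrations. Step 3: Interpolate endpoints linearly; if unreached, use highest concentration. At the GI50, growth is halved. The concentration for full growth arrest is given as TGI.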 Where a SMILES comes first, the peptide text is derived from it. [ ]: non-standard residue; d: D form. The star is where a group is joined. ξ: configuration not given here. NMeY = CN[C@@H](Cc1ccc(O)cc1)C(=O)O; Cbz = O=C(OCc1ccccc1)*; ξA = CC(N)C(=O)O

Columns and labels:
Assay in all cases: NCI-60 cell line screen, 48 h
CAKI-1 renal = tested on: CAKI-1 renal
NCI/ADR-RES ovarian = tested on: NCI/ADR-RES ovarian
MDA-MB-435 = tested on: MDA-MB-435
OVCAR-3 ovarian = tested on: OVCAR-3 ovarian
PC-3 prostate = tested on: PC-3 prostate
786-0 renal = tested on: 786-0 renal
HOP-92 NSCLC = tested on: HOP-92 NSCLC
RPMI-8226 leukemia = tested on: RPMI-8226 leukemia
ACHN renal = tested on: ACHN renal
OVCAR-4 ovarian = tested on: OVCAR-4 ovarian
BT-549 breast = tested on: BT-549 breast

| Compound | TGI (CAKI-1 renal) [µM] | TGI (NCI/ADR-RES ovarian) [µM] | TGI (MDA-MB-435) | TGI (OVCAR-3 ovarian) [µM] | TGI (PC-3 prostate) | TGI (786-0 renal) | TGI (HOP-92 NSCLC) [µM] | TGI (RPMI-8226 leukemia) | TGI (ACHN renal) | TGI (OVCAR-4 ovarian) [µM] | TGI (BT-549 breast) [µM] | GI50 (CAKI-1 renal) [µM] | GI50 (NCI/ADR-RES ovarian) [µM] | GI50 (MDA-MB-435) [µM] | GI50 (OVCAR-3 ovarian) [µM] | GI50 (PC-3 prostate) [µM] | GI50 (RPMI-8226 leukemia) [µM] | GI50 (ACHN renal) [µM] | GI50 (OVCAR-4 ovarian) [µM] |
| --- | --- | --- | --- | --- | --- | --- | --- | --- | --- | --- | --- | --- | --- | --- | --- | --- | --- | --- | --- |
| COc1ccc(CNc2nc(NCc3ccc(OC)cc3)nc(NC3CCCCC3)n2)cc1 | 4.86 | 5.36 | 1.94 µM | 6.24 | > 100 µM | > 100 µM | > 100 | > 100 µM | > 100 µM | > 100 | 37.9 |  |  |  |  |  |  |  |  |
| CCOC(=O)c1cc(-c2ccc(OC)c(OC)c2)c[nH]1 | > 10 | > 10 | > 10 µM | > 10 | > 10 µM | > 10 µM | > 10 | > 10 µM | > 10 µM | > 10 | > 10 |  |  |  |  |  |  |  |  |
| CCOC(=O)CCC(NC(=O)OCc1ccccc1)C(=O)NNC(=O)OC(C)(C)C (centres undefined) | > 100 | > 100 | > 100 µM | > 100 | > 100 µM | > 100 µM | > 100 | > 100 µM | > 100 µM | > 100 | > 100 |  |  |  |  |  |  |  |  |
| Oc1c2cccc1Cc1cccc3c1OCCOCCOCCOCCOc1c(cccc1Cc1cccc(c1O)C3)C2 | > 100 | > 100 | > 100 µM | > 100 | > 100 µM | > 100 µM | > 100 | > 100 µM | > 100 µM | > 100 | > 100 |  |  |  |  |  |  |  |  |
| Oc1ccc2ccccc2c1-c1nnc(CCCCCCCCc2nnc(-c3c(O)ccc4ccccc34)o2)o1 | 3.11 |  | 25 µM and > 100 µM |  | 22.4 µM and 50.6 µM | 8.94 µM and 30.9 µM | > 79 | 25 µM and > 100 µM | 25 µM and > 55.3 µM | 25 | > 100 | 0.698 | 0.38 | 3.5 | 0.135 | 1.55 | 3.56 | 1.28 | 2.35 |
| Cc1[nH]c(=O)nc(N/N=C/c2ccc(Cl)c(Cl)c2)c1C(=O)Nc1ccc(Cl)c(Cl)c1 | 33.3 | > 47.6 | > 39.5 µM | 24.5 | > 51.5 µM | > 39 µM | 39.3 | > 100 µM | > 53.1 µM | 11 | 39.7 |  |  |  |  |  |  |  |  |
| O=C1c2ccccc2NC2C(O)c3ccccc3N12 (centres undefined) | > 100 | > 100 | 31.9 µM | > 100 | > 100 µM | > 100 µM | > 100 | 54.3 µM | > 100 µM | > 100 | > 100 |  |  |  |  |  |  |  |  |
| OC(CC(c1ccccc1)c1ccc(Cl)cc1)c1ccc(Cl)cc1 (centres undefined) | > 100 | 95.2 | 91.5 µM | 81.6 | > 100 µM | > 100 µM | 64.2 | 70 µM | 77.6 µM | > 100 | > 100 |  |  |  |  |  |  |  |  |
| NC(N)=N/N=C(\c1ccc(Cl)cc1)C1CC1 | > 100 | 61.2 | 34.7 µM | 50.4 | 34.9 µM | 32.5 µM | 62.6 | 37.9 µM | 57.7 µM | > 100 | 49.6 |  |  |  |  |  |  |  |  |
| COc1ccc(N2C(=O)C3c4[nH]c5ccc(C)cc5c4C4CCC(C(C)C)CC4C3C2=O)cc1 (centres undefined) | > 100 | > 100 | > 100 µM | > 100 | > 100 µM | > 100 µM | > 100 | > 100 µM | > 100 µM | > 100 | > 100 |  |  |  |  |  |  |  |  |
| CC(=O)N[C@@H](Cc1ccc(O)cn1)C(=O)NCc1ccc2c(c1)OCO2 | > 100 | > 100 | > 100 µM | > 100 | > 100 µM | > 100 µM | > 100 | > 100 µM | > 100 µM | > 100 | > 100 |  |  |  |  |  |  |  |  |
| c1ccc2c3c(ccc2c1)CSCc1ccc2ccccc2c1-3 | > 100 | > 100 | > 100 µM | > 100 | > 100 µM | > 100 µM | > 100 | > 100 µM | > 100 µM | > 100 | > 100 |  |  |  |  |  |  |  |  |
| COc1ccccc1C(=O)c1c(N2CCCCC2)c(=O)c1=O | > 100 | > 100 | > 100 µM | > 100 | > 100 µM | > 100 µM | > 100 | > 100 µM | > 100 µM | > 100 | > 100 |  |  |  |  |  |  |  |  |
| COc1ccc(C[C@@H](C(=O)NCC(N)=O)N(C)C(=O)[C@@H]2CCCN2C(=O)[C@H](CC(C)C)NC(=O)C(C)NC(=O)OCc2ccccc2)cc1 (some centres undefined) (Cbz-[ξA]LP[NMeY](Me)G-NH2) | > 100 | > 100 | > 100 µM | > 100 | > 100 µM | > 100 µM | > 100 | > 100 µM | > 100 µM | > 100 | > 100 |  |  |  |  |  |  |  |  |
| CCOC(=O)c1c2c(n(C)c1-c1ccccc1)C(=O)C(C)=CC2=O | 28.1 | 23.3 | 3.68 µM | 8.17 | 25.5 µM | 32.1 µM | 5.46 | 4.81 µM | 20.7 µM | 20.3 | 27.7 |  |  |  |  |  |  |  |  |
| O=C(c1ccccc1F)c1c(NCc2ccccc2)c(=O)c1=O | > 100 | > 100 | > 100 µM | > 100 | > 100 µM | > 100 µM | > 100 | > 100 µM | > 100 µM | > 100 | > 100 |  |  |  |  |  |  |  |  |
| C=CCc1c(O)c2ccccc2[nH]c1=O | > 100 | > 100 | > 100 µM | > 100 | > 100 µM | > 100 µM | > 100 | > 100 µM | > 100 µM | > 100 | > 100 |  |  |  |  |  |  |  |  |
| O=C(Nc1cccc2nsnc12)c1cc2c(cc1Cl)Sc1nccn1S2(=O)=O | 25.7 | 42.6 | 36.5 µM | 3.47 | 3.64 µM | 32 µM | 25.2 | 4.96 µM | 35.9 µM | 15.6 | 36.9 |  |  |  |  |  |  |  |  |
